Reference: US20160370353A1, “METHOD FOR DISTINGUISHING SECRETORY GRANULES OF DIFFERENT AGES” (TECHNISCHE UNIVERSITÄT DRESDEN MEDIZINISCHE FAKULTÄT CARL …, priority 2008, published 2016)

System: SNAP-tag (hINS-SNAP) in INS-1 cells
Experiment: Dual-color labeling (TMR-Star, BTP block, BG505) of living INS-1 cells expressing hINS-SNAP; co-localization analysis
Assay type: cell-based, rat
Protocol: The first labeling was carried out for 15 min with 2 μM TMR (red) in normal media (I ml per well), followed by 2×PBS wash and 30 min, incubation in media without the SNAP substrate. The labeling with 10 μM BTP lasted 20 min. followed by two washings with PBS and 30 min incubation in media without BTP. The period between the BTP administration and the BG505 (green) administration was 4 hour long, so that any unbound BTP had sufficient time to be cleared out of the cells, thus allowing the labeling of newly synthesized hlns-SNAP. During this period […] additional washings were performed: two times with PBS and two times with media.
Cells were then incubated with 10 μM BG505 for 30 min, followed by two washings with PBS, 30 min incubation in media and another PBS washing. After the last washing, the cells were fixed (4% PFA, pH: 7.4 for 10 min at 4° C.) and embedded (ProLong Gold antifade reagent with DAPI, P36931, Molecular Probes). […]
Software analysis of the acquired images allowed the generation of images representing the co-localized pixels from both channels and also the characteristic scattered plots. […] The calculated Pearson's coefficients (10 μM BTP: 0.515; 0 μM BTP: 0.829) calculated according to Bolte et al., are in agreement with this interpretation.

Sequence of SNAP-tag (hINS-SNAP) in INS-1 cells (P16455 1-182 C62A/K125A/A127T/R128A/G131K/G132T/M134L/R135S/C150S/N157G/S159E limits assumed): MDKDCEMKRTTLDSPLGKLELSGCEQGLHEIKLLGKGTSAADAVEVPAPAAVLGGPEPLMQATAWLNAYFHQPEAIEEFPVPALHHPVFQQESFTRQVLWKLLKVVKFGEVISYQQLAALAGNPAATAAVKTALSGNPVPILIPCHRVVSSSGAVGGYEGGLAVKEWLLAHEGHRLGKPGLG

In the case of bromothenylpteridine [BTP], the “Pearson's coefficient (co-localization of TMR and BG505 pixels)” value (INS-1 cells exposed sequentially to TMR, 10 μM BTP and BG505, control without blocker (0 μM BTP): 0.829) is reported as 0.515 and the “Co-localized pixels (white) of red and green channels” value (blocking step with BTP interposed between sequential labelings with TMR-Star and BG505, many co-localized pixels when BTP omitted) is reported as “No co-localization”.
